Laboratory results from publication PMC3500442 (ACS Chemical Biology, 2012).

Molecular target: T1, MJ0408 (MptD, archaeal DHNA) (Methanocaldococcus jannaschii, UniProt Q57851)
T1 sequence (Q57851 1-121): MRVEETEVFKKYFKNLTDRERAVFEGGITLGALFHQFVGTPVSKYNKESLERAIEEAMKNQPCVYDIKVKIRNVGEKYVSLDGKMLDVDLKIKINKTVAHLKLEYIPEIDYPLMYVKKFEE
Experiment: HPLC fluorescence after iodine oxidation
Format: biochemical
Details: 110 uM H2Neo, 8 mM MgCl2, 16 mM DTT, TES/KCl pH 7.4, 70 °C, argon

| SMILES | HPLC fluorescence after iodine oxidation |
| --- | --- |
| Nc1nc2c(c(=O)[nH]1)N=C([C@H](O)[C@H](O)CO)CN2 [H2Neo, 7,8-dihydroneopterin] | it was found to catalyze the formation of 6-HMD from H2Neo |
| Nc1nc2c(c(=O)[nH]1)N=C(CO)CN2 [6-HMD, 6-hydroxymethyl-7,8-dihydropterin] | it was found to catalyze the formation of 6-HMD from H2Neo |
